Results published in EP4595972A1, “PEPTIDE FOR TREATING OR PREVENTING 4R TAUOPATHY” (GemVax & KAEL Co., Ltd., priority 2022, dated 2024).

System: mouse Tau (mTau)
Assay: Tau immunoblot of brain lysate, soluble fraction, mTau
Type: in vivo
Details: LMTM 15 mg/kg oral vs. vehicle, decrease (in parentheses)
Description: • (1) After completing administration, the mice of TauP301L-BiFC mouse model were anesthetized, followed by preparing heart laparotomy. • (2) Saline was introduced to the heart of each mouse in the TauP301L-BiFC mouse model, followed by removing vivo blood using a perfusion pump machine. • (3) After removing the blood, the brain was extracted and weighed. • (4) 1 mL RIPA buffer (w/protease/phosphatase inhibitor cocktail) was added to the extracted brain, followed by homogenization. • (5) After moving the homogenized brain lysate to an ep-tube, it was subjected to incubation in 4°C orbital shaker for 2 hours. • (6) After centrifugation at 4°C with a speed of 13,000 rpm for 20 minutes, the supernatant (soluble fraction) was collected in a new ep-tube and stored at -80°C • (7) In order to prepare an immunoblot sample, the concentration of a soluble fraction sample was quantified by Bradford protein quantification method. • (8) To each sample, RIPA buffer and 4X SDS Laemmli sample buffer (w/ 2.5% β-mercaptoethanol for reducing condition) were added to reach a final concentration of 2 mg/mL. • (9) The sample was boiled at 97°C for 5 minutes. […]

CN(C)c1ccc2c(c1)Sc1cc(N(C)C)ccc1N2.CS(=O)(=O)O.CS(=O)(=O)O [LMTM]
Soluble fraction, Phosphorylated tau, mTau (pS199) (***p<0.001): (34%)** *
Soluble fraction, Total tau, mTau (**p<0.01): (24%)**
Soluble fraction, Phosphorylated tau, mTau (pS396) (*p<0.05): (27%)*
